32 molecules from PubChem BioAssay AID328 (DTP/NCI, 2004) can be followed below.

Structures are written as SMILES. Where “and” joins values, the source holds several entries; their conditions need not be identical. Equal entries are not always repeated. Inconclusive results and toxic doses are left out.

For this experiment, the system named is BDF1 mice, P388 leukemia ip, median survival T/C. The experiment is described as follows: NCI In Vivo Anticancer Drug Screen. Data for tumor model P388 Leukemia (intraperitoneal) in B6D2F1 (BDF1) mice. The settings on record: endpoint: median survival time, higher = longer survival. In short, it runs like this:
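In tumour-bearing mice, survival after compound treatment is set against the vehicle group and given as a quotient.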

[1] abbreviates: dose: 150.0 mg/kg/injection, schedule: Q01DX009 (ip), vehicle: saline with Tween-80.
Where [2] appears, read: dose: 300.0 mg/kg/injection, schedule: Q01DX009 (ip), vehicle: saline with Tween-80.
The mark [3] stands for this setting: dose: 100.0 mg/kg/injection, schedule: Q01DX009 (ip), vehicle: Klucel (hydroxypropylcellulose) (HPC).
[4] abbreviates: dose: 200.0 mg/kg/injection, schedule: Q01DX009 (ip), vehicle: Klucel (hydroxypropylcellulose) (HPC).
Setting [5] is: dose: 400.0 mg/kg/injection, schedule: Q01DX009 (ip), vehicle: Klucel (hydroxypropylcellulose) (HPC).
Setting [6] is: dose: 50.0 mg/kg/injection, schedule: Q01DX009 (ip), vehicle: saline.
Where [7] appears, read: dose: 100.0 mg/kg/injection, schedule: Q01DX009 (ip), vehicle: saline.
Setting [8] is: dose: 100.0 mg/kg/injection, schedule: Q01DX001 (ip), vehicle: saline with Tween-80.
Setting [9] is: dose: 200.0 mg/kg/injection, schedule: Q01DX001 (ip), vehicle: saline with Tween-80.
[10] abbreviates: dose: 400.0 mg/kg/injection, schedule: Q01DX001 (ip), vehicle: saline with Tween-80.
Where [11] appears, read: dose: 100.0 mg/kg/injection, schedule: Q04DX003 (ip), vehicle: saline with Tween-80.
Setting [12] is: dose: 200.0 mg/kg/injection, schedule: Q04DX003 (ip), vehicle: saline with Tween-80.
The mark [13] stands for this setting: dose: 400.0 mg/kg/injection, schedule: Q04DX003 (ip), vehicle: saline with Tween-80.
Setting [14] is: dose: 6.25 mg/kg/injection, schedule: Q01DX009 (ip), vehicle: saline with Tween-80.
Where [15] appears, read: dose: 25.0 mg/kg/injection, schedule: Q01DX009 (ip), vehicle: saline with Tween-80.
Where [16] appears, read: dose: 50.0 mg/kg/injection, schedule: Q01DX009 (ip), vehicle: saline with Tween-80.
Setting [17] is: dose: 100.0 mg/kg/injection, schedule: Q01DX009 (ip), vehicle: saline with Tween-80.
Where [18] appears, read: dose: 12.5 mg/kg/injection, schedule: Q01DX009 (ip), vehicle: saline with Tween-80.
[19] abbreviates: dose: 200.0 mg/kg/injection, schedule: Q01DX009 (ip), vehicle: saline with Tween-80.
Setting [20] is: dose: 400.0 mg/kg/injection, schedule: Q01DX009 (ip), vehicle: saline with Tween-80.

For `C/C(=N\NC(=O)CC(=O)N/N=C(\C)c1ccccc1)c1ccccc1`, the T/C is 91 % of control (dose: 75.0 mg/kg/injection, schedule: Q01DX009 (ip), vehicle: saline with Tween-80); 99 % of control under setting [1]; 90 % of control under setting [2].
Regarding `Cc1ccccc1NS(=O)(=O)c1c([N+](=O)[O-])ncn1C`, the T/C was 110 % of control (dose: 50.0 mg/kg/injection, schedule: Q01DX009 (ip), vehicle: Klucel (hydroxypropylcellulose) (HPC)); 116 % of control under setting [3]; 116 % of control under setting [4]; 95 % of control under setting [5].
For `CC1=CCCC2(CCC3(C)CC32)C1(C)C` (centres undefined), the T/C (dose: 45.0 mg/kg/injection, schedule: Q01DX009 (ip), vehicle: saline) is 90 % of control; the T/C under setting [6] was 100 % of control; the T/C (dose: 67.0 mg/kg/injection, schedule: Q01DX009 (ip), vehicle: saline) was 109 % of control; the T/C under setting [7] is 113 % of control and 120 % of control.
Consider `CCOC(=O)C1=C(C)NC(C)=C(C(=O)OCC)C1`, for which the T/C was 90 % of control under setting [8], 95 % of control under setting [9] and 100 % of control under setting [10].
As to `NC(=O)C1=NNc2ccccc2C(=O)N1c1ccccc1`, the T/C is, setting by setting: under setting [11], 108 % of control; under setting [12], 113 % of control; under setting [13], 103 % of control.
For the molecule `CCCCCCCCOB(OCCCCCCCC)OCCCCCCCC`, the T/C runs as follows: (dose: 25.0 mg/kg/injection, schedule: Q04DX003 (ip), vehicle: saline with Tween-80) 91 % of control; (dose: 50.0 mg/kg/injection, schedule: Q04DX003 (ip), vehicle: saline with Tween-80) 100 % of control; under setting [11], 91 % of control and 100 % of control.
Regarding `CCCCCCCCCCCCSSC(=S)OC(C)C`, the T/C by setting is: (dose: 50.0 mg/kg/injection, schedule: Q01DX009 (ip), vehicle: other) 106 % of control; (dose: 100.0 mg/kg/injection, schedule: Q01DX009 (ip), vehicle: other) 124 % of control.
With `O=C(c1ccccc1)C1CC1c1ccccc1` (centres undefined), the T/C reads like this: (dose: 100.0 mg/kg/injection, schedule: Q01DX001 (ip), vehicle: Klucel (hydroxypropylcellulose) (HPC)) 120 % of control; (dose: 200.0 mg/kg/injection, schedule: Q01DX001 (ip), vehicle: Klucel (hydroxypropylcellulose) (HPC)) 104 % of control; (dose: 400.0 mg/kg/injection, schedule: Q01DX001 (ip), vehicle: Klucel (hydroxypropylcellulose) (HPC)) 100 % of control.
Take `CN(C)CCN1C(=O)c2cccc3cc([N+](=O)[O-])cc(c23)C1=O`: the T/C runs as follows: (dose: 3.13 mg/kg/injection, schedule: Q01DX009 (ip), vehicle: saline with Tween-80) 160 % of control; under setting [14], 215 % of control.
As to `COc1cc2c(cc1O)C(=O)CCCC2`, the T/C is 97 % of control under setting [15]; 101 % of control and 120 % of control under setting [16]; 103 % of control under setting [3]; 97 % of control under setting [17]; 100 % of control under setting [11]; 103 % of control under setting [4]. The T/C is 104 % of control under setting [12], 103 % of control under setting [5] and 95 % of control under setting [13].
In the case of `O=S(=O)(F)c1ccc(N=C=S)cc1`, the T/C was 120 % of control under setting [14], 116 % of control under setting [18] and 112 % of control under setting [15].
As to `CCCCCCCCCCCCCCCC(=O)N(CCC#N)CCC#N`, the T/C by setting is: (dose: 66.0 mg/kg/injection, schedule: Q01DX009 (ip), vehicle: saline with Tween-80) 91 % of control; under setting [17], 91 % of control; under setting [1], 108 % of control.
For `O=C(O)c1cc(C(Cl)(Cl)Cl)ccc1C(Cl)(Cl)Cl`, the T/C (dose: 100.0 mg/kg/injection, schedule: Q04DX003 (ip), vehicle: saline sonified) was 95 % of control and the T/C (dose: 400.0 mg/kg/injection, schedule: Q04DX003 (ip), vehicle: saline sonified) was 104 % of control.
With `CCCCCCCC(=O)CCCCC`, the T/C by setting is: under setting [11], 100 % of control; under setting [12], 95 % of control; under setting [13], 91 % of control.
For `Cn1c(/N=C(/N)N=C(N)N)cc(=O)n(C)c1=O`, the T/C reads like this: (dose: 50.0 mg/kg/injection, schedule: Q04DX003 (ip), vehicle: saline) 104 % of control; (dose: 100.0 mg/kg/injection, schedule: Q04DX003 (ip), vehicle: saline) 100 % of control; (dose: 200.0 mg/kg/injection, schedule: Q04DX003 (ip), vehicle: saline) 95 % of control.
As to `O=C1OC(c2ccc(O)cc2)(c2ccc(Oc3ccccc3)cc2)c2ccccc21` (centres undefined), the T/C was 97 % of control under setting [17], 105 % of control under setting [19] and 99 % of control under setting [20].
Regarding `CCSc1ncc(Br)c(Sc2nc(N)nc3nc[nH]c23)n1`, the T/C under setting [11] was 86 % of control.
As to `O=C(c1ccccc1)C1CN(C2CCCC2)C1c1ccccc1` (centres undefined), the T/C is, setting by setting: under setting [16], 91 % of control; under setting [17], 92 % of control; under setting [19], 91 % of control.
As to `ClC1OC(Cl)C(Cl)OC1Cl` (centres undefined), the T/C is 105 % of control (dose: 6.25 mg/kg/injection, schedule: Q01DX009 (ip), vehicle: Klucel (hydroxypropylcellulose) (HPC)) and 110 % of control (dose: 12.5 mg/kg/injection, schedule: Q01DX009 (ip), vehicle: Klucel (hydroxypropylcellulose) (HPC)).
For `CC(C)(C)NCc1cc(C(C)(C)C)cc(-c2ccc(Cl)cc2)c1O`, the T/C is, setting by setting: under setting [16], 99 % of control; under setting [17], 102 % of control.
As to `COC(=O)Nc1nc2ccc(C(=O)c3ccccc3)cc2[nH]1`, the T/C is 106 % of control (dose: 10.0 mg/kg/injection, schedule: Q04DX003 (ip), vehicle: other); 173 % of control (dose: 30.0 mg/kg/injection, schedule: Q04DX003 (ip), vehicle: saline with Tween-80); 178 % of control (dose: 35.0 mg/kg/injection, schedule: Q04DX003 (ip), vehicle: saline with Tween-80).
Regarding `N#CSCc1ccc(OCc2ccccc2)cc1`, the T/C reads like this: under setting [16], 100 % of control; under setting [17], 103 % of control; under setting [19], 112 % of control.
The like results for `CCOC(=O)c1ccccc1S(=O)(=O)c1ccccc1C(=O)OCC` were, in that order, 106 % of control, 100 % of control and 112 % of control.
With `C1CC[N+]2(CC1)CCC2`, the T/C reads like this: (dose: 25.0 mg/kg/injection, schedule: Q01DX009 (ip), vehicle: saline) 113 % of control; under setting [6], 109 % of control; under setting [7], 100 % of control.
Take `COC(=O)C1C2(C)CCc3cc(OC)ccc3C2=CC(=O)C1(C)C(=O)OC` (centres undefined): the T/C was 100 % of control (dose: 50.0 mg/kg/injection, schedule: Q04DX003 (sc), vehicle: steriod suspending solution) and 90 % of control (dose: 100.0 mg/kg/injection, schedule: Q04DX003 (sc), vehicle: steriod suspending solution).
Consider `C[CH2][Sn]([c]1ccccc1)([c]1ccccc1)[c]1ccccc1`, for which the T/C reads like this: under setting [18], 104 % of control; under setting [15], 109 % of control; under setting [16], 104 % of control.
As to `CN(C)CCCNc1c2ccccc2nc2cccc([N+](=O)[O-])c12`, the T/C reads like this: (dose: 0.2 mg/kg/injection, schedule: Q04DX003 (ip), vehicle: saline) 124 % of control; (dose: 0.5 mg/kg/injection, schedule: Q04DX003 (ip), vehicle: saline) 101 % of control.
As for `CC(=O)OCCC(CCOC(C)=O)=C1N=C(c2ccccc2)OC1=O`, the T/C is 120 % of control under setting [17], 118 % of control under setting [2] and 116 % of control under setting [20].
Regarding `O=C(OC12CCCCC1CCCC2)c1ccc([N+](=O)[O-])cc1` (centres undefined), the T/C runs as follows: under setting [11], 110 % of control; under setting [12], 100 % of control; under setting [13], 100 % of control.
As to `N#CCCSC(=S)C1CCCC1=N` (centres undefined), the T/C is 112 % of control under setting [17] and 102 % of control under setting [19].
With `CCN(CCP(c1ccccc1)c1ccccc1)CCP(c1ccccc1)c1ccccc1`, the T/C runs as follows: under setting [16], 86 % of control; (dose: 66.0 mg/kg/injection, schedule: Q04DX003 (ip), vehicle: saline with Tween-80) 150 % of control; under setting [11], 159 % of control.
As for `CCS(=O)(=O)c1cccc2nncn12`, the T/C by setting is: under setting [8], 108 % of control; under setting [9], 106 % of control; under setting [10], 100 % of control.
